According to PubChem BioAssay AID330 (DTP/NCI, 2004):
Several values for one entry are separate records, joined by “and”; a condition that tells them apart may be missing. Identical values can stand only once. Toxic doses and inconclusive results are not listed. How the source made its calls: active means survival T/C of 150% or more; inactive means T/C below 125% in these data.

Test system: P388 leukemia ip, CD2F1 mice, survival T/C
Assay: NCI In Vivo Anticancer Drug Screen. Data for tumor model P388 Leukemia (intraperitoneal) in CD2F1 (CDF1) mice
Details: endpoint: median survival time, higher = longer survival
Method in brief: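 Mice carrying the transplanted tumor received test compound or vehicle. Survival was recorded in each group, and the value is the treated-group measurement divided by that of the vehicle-treated control group.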

[1] = dose: 1.0 mg/kg/injection, schedule: Q01DX001 (ip), vehicle: water
[2] = dose: 2.0 mg/kg/injection, schedule: Q01DX001 (ip), vehicle: water
[3] = dose: 4.0 mg/kg/injection, schedule: Q01DX001 (ip), vehicle: water
[4] = dose: 50.0 mg/kg/injection, schedule: Q01DX005 (ip), vehicle: saline with Tween-80
[5] = dose: 100.0 mg/kg/injection, schedule: Q01DX005 (ip), vehicle: saline with Tween-80
[6] = dose: 200.0 mg/kg/injection, schedule: Q01DX005 (ip), vehicle: saline with Tween-80
[7] = dose: 50.0 mg/kg/injection, schedule: Q01DX009 (ip), vehicle: saline with Tween-80
[8] = dose: 100.0 mg/kg/injection, schedule: Q01DX009 (ip), vehicle: saline with Tween-80
[9] = dose: 200.0 mg/kg/injection, schedule: Q01DX009 (ip), vehicle: saline with Tween-80
[10] = dose: 60.0 mg/kg/injection, schedule: Q01DX005 (ip), vehicle: saline with Tween-80
[11] = dose: 120.0 mg/kg/injection, schedule: Q01DX005 (ip), vehicle: saline with Tween-80
[12] = dose: 240.0 mg/kg/injection, schedule: Q01DX005 (ip), vehicle: saline with Tween-80
[13] = dose: 6.25 mg/kg/injection, schedule: Q01DX005 (ip), vehicle: saline with Tween-80
[14] = dose: 12.5 mg/kg/injection, schedule: Q01DX005 (ip), vehicle: saline with Tween-80
[15] = dose: 50.0 mg/kg/injection, schedule: Q01DX005 (ip), vehicle: Klucel (hydroxypropylcellulose) (HPC)
[16] = dose: 100.0 mg/kg/injection, schedule: Q01DX005 (ip), vehicle: Klucel (hydroxypropylcellulose) (HPC)
[17] = dose: 12.5 mg/kg/injection, schedule: Q01DX009 (ip), vehicle: Klucel (hydroxypropylcellulose) (HPC)
[18] = dose: 50.0 mg/kg/injection, schedule: Q01DX009 (ip), vehicle: Klucel (hydroxypropylcellulose) (HPC)
[19] = dose: 25.0 mg/kg/injection, schedule: Q01DX009 (ip), vehicle: saline with Tween-80

Measured: T/C

CC[C@@H]1CN2CCc3c([nH]c4ccccc34)[C@@](C(=O)OC)(c3cc4c(cc3OC)N(C)[C@H]3[C@@](O)(C(=O)OC)[C@H](OC(C)=O)[C@]5(CC)C=CCN6CC[C@]43[C@@H]65)C[C@H](C2)C1=O
inactive: [1] 104 % of control | [2] 108 % of control | dose: 4.0 mg/kg/injection, schedule: Q01DX001 (ip), vehicle: distilled water + Tween-80 119 % of control | [3] 120 % of control | dose: 8.0 mg/kg/injection, schedule: Q01DX001 (ip), vehicle: distilled water + Tween-80 117 % of control | dose: 16.0 mg/kg/injection, schedule: Q01DX001 (ip), vehicle: distilled water + Tween-80 119 % of control

O=C(NCCCCOc1ccccc1[N+](=O)[O-])OCc1ccccc1
inactive: [4] 101 % of control | [5] 97 % of control | [6] 101 % of control

CC1(C)CC(OC(=O)Oc2c3ccccc3c3ccc4cccc5ccc2c3c54)CC(C)(C)N1O
inactive: [7] 97 % of control | [8] 97 % of control | [9] 103 % of control

O/N=C/C(Cl)(Cl)Cl
inactive: dose: 3.12 mg/kg/injection, schedule: Q01DX009 (ip), vehicle: saline 105 % of control | dose: 6.25 mg/kg/injection, schedule: Q01DX009 (ip), vehicle: saline 109 % of control | dose: 12.5 mg/kg/injection, schedule: Q01DX009 (ip), vehicle: saline 107 % of control and 97 % of control | dose: 25.0 mg/kg/injection, schedule: Q01DX009 (ip), vehicle: saline 100 % of control and 93 % of control

c1ccc(C(SN=C2CCCCC2)(c2ccccc2)c2ccccc2)cc1
inactive: [4] 100 % of control | [5] 91 % of control | [6] 90 % of control

NNc1ccc(-n2ncc(C(N)=O)c2N)nn1
inactive: dose: 50.0 mg/kg/injection, schedule: Q01DX005 (ip), vehicle: other 104 % of control | dose: 100.0 mg/kg/injection, schedule: Q01DX005 (ip), vehicle: other 107 % of control

CCc1cc2c(cc1C(C)=O)C(C)(C)CCC2(C)C
inactive: [7] 94 % of control | [8] 110 % of control

CCSc1nsc(NC(C)=O)n1
inactive: dose: 100.0 mg/kg/injection, schedule: Q01DX001 (ip), vehicle: Klucel (hydroxypropylcellulose) (HPC) 104 % of control | dose: 200.0 mg/kg/injection, schedule: Q01DX001 (ip), vehicle: Klucel (hydroxypropylcellulose) (HPC) 96 % of control | dose: 400.0 mg/kg/injection, schedule: Q01DX001 (ip), vehicle: Klucel (hydroxypropylcellulose) (HPC) 102 % of control

Cc1nc2c(N)n[nH]c(=O)n2n1
inactive: [10] 103 % of control | [11] 100 % of control | [12] 99 % of control

C/C(=N\NC(=S)N1CCCC1)c1cnccn1
inactive: [13] 100 % of control | [14] 103 % of control | dose: 25.0 mg/kg/injection, schedule: Q01DX005 (ip), vehicle: saline with Tween-80 100 % of control

Cc1nc(Nc2ccccc2)c2c(C)c(Cc3ccccc3)[nH]c2n1
inactive: [15] 89 % of control | [16] 86 % of control | dose: 200.0 mg/kg/injection, schedule: Q01DX005 (ip), vehicle: Klucel (hydroxypropylcellulose) (HPC) 87 % of control

C=CC(C)(C)c1[nH]c2ccccc2c1CC1NC(=O)C(C)NC1=O (centres undefined)
inactive: [17] 86 % of control | [18] 92 % of control

COc1ccc2c(c1)OC(C)(C)C(c1ccccc1)=C2c1ccc2c(c1)NCCO2
inactive: dose: 15.0 mg/kg/injection, schedule: Q01DX005 (ip), vehicle: saline with Tween-80 99 % of control | dose: 30.0 mg/kg/injection, schedule: Q01DX005 (ip), vehicle: saline with Tween-80 91 % of control | [10] 91 % of control

CCCCCCCC(=O)Nc1cccc(C)c1C
inactive: dose: 100.0 mg/kg/injection, schedule: Q04DX003 (ip), vehicle: saline with Tween-80 90 % of control | dose: 200.0 mg/kg/injection, schedule: Q04DX003 (ip), vehicle: saline with Tween-80 95 % of control

O=NN(C(=O)NCCCl)c1[nH]c(=O)ncc1Cl
inactive: dose: 25.0 mg/kg/injection, schedule: Q01DX005 (ip), vehicle: Klucel (hydroxypropylcellulose) (HPC) 97 % of control | [15] 100 % of control | [16] 108 % of control

CC(Sc1ncnc2[nH]ncc12)C(N)=O (centres undefined)
inactive: [10] 97 % of control | [11] 97 % of control | [12] 118 % of control

N#CC1OC1c1cccc[n+]1[O-] (centres undefined)
inactive: [13] 98 % of control | dose: 6.25 mg/kg/injection, schedule: Q01DX005 (ip), vehicle: saline 104 % of control | [14] 98 % of control | dose: 12.5 mg/kg/injection, schedule: Q01DX005 (ip), vehicle: saline 96 % of control | dose: 25.0 mg/kg/injection, schedule: Q01DX005 (ip), vehicle: saline 102 % of control

OCCn1nc2c(c1-c1ccncc1)CCCc1ccccc1-2
inactive: dose: 100.0 mg/kg/injection, schedule: Q04DX002 (ip), vehicle: saline with Tween-80 97 % of control | dose: 200.0 mg/kg/injection, schedule: Q04DX002 (ip), vehicle: saline with Tween-80 94 % of control | dose: 400.0 mg/kg/injection, schedule: Q04DX002 (ip), vehicle: saline with Tween-80 94 % of control

CC=C(C)c1ccccc1 (mixture of isomers)
inactive: [19] 104 % of control | [7] 100 % of control | [8] 103 % of control | [9] 105 % of control

CCCCN1C(=O)C(=O)N(Cc2ccco2)C1=O
inactive: [18] 98 % of control | dose: 100.0 mg/kg/injection, schedule: Q01DX009 (ip), vehicle: Klucel (hydroxypropylcellulose) (HPC) 104 % of control | dose: 200.0 mg/kg/injection, schedule: Q01DX009 (ip), vehicle: Klucel (hydroxypropylcellulose) (HPC) 106 % of control

CCC1(O)CC2C3C(C(=O)OC)=C4Nc5ccccc5C45CCN(C31)C25 (centres undefined)
inactive: [1] 100 % of control | [2] 100 % of control | [3] 101 % of control | dose: 8.0 mg/kg/injection, schedule: Q01DX001 (ip), vehicle: water 92 % of control | dose: 16.0 mg/kg/injection, schedule: Q01DX001 (ip), vehicle: water 95 % of control | dose: 32.0 mg/kg/injection, schedule: Q01DX001 (ip), vehicle: water 99 % of control

COc1cc2c(cc1OC(C)=O)C(=O)C(Br)(Br)CCC2
inactive: dose: 15.0 mg/kg/injection, schedule: Q01DX009 (ip), vehicle: saline with Tween-80 98 % of control | [19] 103 % of control | dose: 30.0 mg/kg/injection, schedule: Q01DX009 (ip), vehicle: saline with Tween-80 106 % of control | [7] 100 % of control and 116 % of control | dose: 60.0 mg/kg/injection, schedule: Q01DX009 (ip), vehicle: saline with Tween-80 100 % of control | [8] 99 % of control | [9] 106 % of control

Cn1cc([N+](=O)[O-])c([N+](=O)[O-])c1
inactive: [7] 102 % of control | [8] 103 % of control | [9] 102 % of control

BrC1C2CC/C=C\CCC12 (centres undefined)
inactive: [10] 100 % of control | [11] 104 % of control | [12] 104 % of control

CC(C)[Si](C#CC[Si](C(C)C)(C(C)C)C(C)C)(C(C)C)C(C)C
inactive: [10] 105 % of control | [11] 98 % of control | [12] 100 % of control

O=C1c2ccccc2-c2c3c(cc4ccnc1c24)OCO3
inactive: dose: 3.12 mg/kg/injection, schedule: Q01DX009 (ip), vehicle: saline with Tween-80 115 % of control | dose: 6.25 mg/kg/injection, schedule: Q01DX009 (ip), vehicle: Klucel (hydroxypropylcellulose) (HPC) 101 % of control | dose: 6.25 mg/kg/injection, schedule: Q01DX009 (ip), vehicle: saline with Tween-80 105 % of control | [17] 97 % of control | dose: 12.5 mg/kg/injection, schedule: Q01DX009 (ip), vehicle: saline with Tween-80 89 % of control | dose: 25.0 mg/kg/injection, schedule: Q01DX009 (ip), vehicle: Klucel (hydroxypropylcellulose) (HPC) 99 % of control | [18] 100 % of control | [7] 99 % of control | [8] 99 % of control
